The text below walks through data of PubChem BioAssay AID330 (DTP/NCI, 2004).

“And” between values parts separate entries of the source, which are not always exact repeats. Identical values can stand only once. Toxic doses and inconclusive results are not listed. Peptide text beside a SMILES is read from it.

The assay concerns P388 leukemia ip, CD2F1 mice, survival T/C. Briefly: NCI In Vivo Anticancer Drug Screen. Data for tumor model P388 Leukemia (intraperitoneal) in CD2F1 (CDF1) mice. The note with it: endpoint: median survival time, higher = longer survival. The procedure, abridged:
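Mice carrying the transplanted tumor received test compound or vehicle. Survival was recorded in each group, and the value is the treated-group measurement divided by that of the vehicle-treated control group.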

Where [1] appears, read: dose: 50.0 mg/kg/injection, schedule: Q01DX009 (ip), vehicle: saline with Tween-80.
[2] abbreviates: dose: 100.0 mg/kg/injection, schedule: Q01DX009 (ip), vehicle: saline with Tween-80.
[3] abbreviates: dose: 100.0 mg/kg/injection, schedule: Q04DX003 (ip), vehicle: saline with Tween-80.
The mark [4] stands for this setting: dose: 200.0 mg/kg/injection, schedule: Q01DX009 (ip), vehicle: saline with Tween-80.
Where [5] appears, read: dose: 200.0 mg/kg/injection, schedule: Q04DX003 (ip), vehicle: saline with Tween-80.
[6] abbreviates: dose: 25.0 mg/kg/injection, schedule: Q01DX009 (ip), vehicle: saline with Tween-80.
Where [7] appears, read: dose: 200.0 mg/kg/injection, schedule: Q01DX009 (ip), vehicle: Klucel (hydroxypropylcellulose) (HPC).
The mark [8] stands for this setting: dose: 6.25 mg/kg/injection, schedule: Q01DX009 (ip), vehicle: saline with Tween-80.
The mark [9] stands for this setting: dose: 12.5 mg/kg/injection, schedule: Q01DX009 (ip), vehicle: saline with Tween-80.

For the compound `C=C1C(=O)OC2CC1C(OC(C)=O)C/C(C)=C/CC/C(C)=C\CCC2(C)O` (centres undefined), the T/C is 107 % of control (dose: 5.0 mg/kg/injection, schedule: Q01DX009 (ip), vehicle: Klucel (hydroxypropylcellulose) (HPC)); 103 % of control (dose: 8.0 mg/kg/injection, schedule: Q01DX009 (ip), vehicle: Klucel (hydroxypropylcellulose) (HPC)); 109 % of control (dose: 10.0 mg/kg/injection, schedule: Q01DX009 (ip), vehicle: Klucel (hydroxypropylcellulose) (HPC)); 95 % of control (dose: 16.0 mg/kg/injection, schedule: Q01DX009 (ip), vehicle: Klucel (hydroxypropylcellulose) (HPC)); 116 % of control (dose: 20.0 mg/kg/injection, schedule: Q01DX009 (ip), vehicle: Klucel (hydroxypropylcellulose) (HPC)); 100 % of control (dose: 25.0 mg/kg/injection, schedule: Q04DX002 (ip), vehicle: saline). Besides, the T/C is, setting by setting: (dose: 32.0 mg/kg/injection, schedule: Q01DX009 (ip), vehicle: Klucel (hydroxypropylcellulose) (HPC)) 106 % of control; (dose: 40.0 mg/kg/injection, schedule: Q01DX009 (ip), vehicle: Klucel (hydroxypropylcellulose) (HPC)) 117 % of control; (dose: 50.0 mg/kg/injection, schedule: Q04DX002 (ip), vehicle: saline) 94 % of control; (dose: 64.0 mg/kg/injection, schedule: Q01DX009 (ip), vehicle: Klucel (hydroxypropylcellulose) (HPC)) 106 % of control; (dose: 100.0 mg/kg/injection, schedule: Q04DX002 (ip), vehicle: saline) 103 % of control; (dose: 200.0 mg/kg/injection, schedule: Q04DX002 (ip), vehicle: saline) 103 % of control.

Consider `CC(C)CC(NC(=O)C(CC(=O)O)NC(=O)C(N)CO)C(=O)N1CCCC1C(=O)NC(CCC(N)=O)C(=O)NC(C(=O)O)C(C)O` (centres undefined) (H-SDLPQT-OH; configuration not given here), for which the T/C (dose: 9.0 mg/kg/injection, schedule: Q01DX005 (ip), vehicle: water) was 110 % of control; the T/C (dose: 18.0 mg/kg/injection, schedule: Q01DX005 (ip), vehicle: water) was 107 % of control; the T/C (dose: 36.0 mg/kg/injection, schedule: Q01DX005 (ip), vehicle: water) is 107 % of control; the T/C (dose: 72.0 mg/kg/injection, schedule: Q01DX005 (ip), vehicle: water) was 107 % of control; the T/C (dose: 144.0 mg/kg/injection, schedule: Q01DX005 (ip), vehicle: water) is 100 % of control.

On to `C[C@H]1C[C@@H]2[C@H]([C@@H](O)C[C@@]3(C)[C@H]2CC[C@]3(O)C(=O)CO)[C@@]2(C)C=CC(=O)C=C12`, for which the T/C under setting [1] was 100 % of control; the T/C (dose: 66.0 mg/kg/injection, schedule: Q01DX009 (ip), vehicle: saline with Tween-80) was 95 % of control; the T/C under setting [2] was 100 % of control; the T/C under setting [3] is 106 % of control and 112 % of control; the T/C (dose: 132.0 mg/kg/injection, schedule: Q04DX003 (ip), vehicle: saline with Tween-80) is 109 % of control; the T/C (dose: 150.0 mg/kg/injection, schedule: Q01DX009 (ip), vehicle: saline with Tween-80) is 90 % of control. Moreover, the T/C is, setting by setting: under setting [4], 97 % of control; under setting [5], 108 % of control and 109 % of control; (dose: 300.0 mg/kg/injection, schedule: Q04DX003 (ip), vehicle: saline with Tween-80) 95 % of control; (dose: 400.0 mg/kg/injection, schedule: Q04DX003 (ip), vehicle: saline with Tween-80) 104 % of control and 108 % of control.

For `C1CCC(N2OC23CCCCC3)CC1` (centres undefined), the T/C runs as follows: under setting [6], 113 % of control; under setting [1], 117 % of control; under setting [2], 123 % of control; under setting [4], 113 % of control.

For `CC12CC3(C)CC(C)(C1)CC(C(NC(C)(C)C)C(=O)O)(C2)C3` (centres undefined), the T/C is 100 % of control under setting [6]; 100 % of control and 105 % of control and 122 % of control under setting [1]; 99 % of control and 110 % of control and 96 % of control under setting [2]; 99 % of control under setting [4].

In the case of `Oc1ccccc1C=Nc1ccc2nc(SC3CCCC3)sc2c1`, the T/C is 93 % of control (dose: 50.0 mg/kg/injection, schedule: Q01DX009 (ip), vehicle: Klucel (hydroxypropylcellulose) (HPC)); 97 % of control (dose: 100.0 mg/kg/injection, schedule: Q01DX009 (ip), vehicle: Klucel (hydroxypropylcellulose) (HPC)); 118 % of control under setting [7].

`CC(C)COC(=O)NCCCl`: the T/C runs as follows: under setting [1], 100 % of control; under setting [2], 97 % of control; under setting [4], 97 % of control.

Take `O=C(Nc1cccc(C2=NCCCN2)c1)Nc1ccc(NC(=O)Nc2cccc(C3=NCCCN3)c2)c(Cl)c1`: the T/C runs as follows: (dose: 0.6 mg/kg/injection, schedule: Q04DX003 (ip), vehicle: saline) 109 % of control; (dose: 1.25 mg/kg/injection, schedule: Q04DX003 (ip), vehicle: saline) 109 % of control; (dose: 2.5 mg/kg/injection, schedule: Q04DX003 (ip), vehicle: saline) 109 % of control; (dose: 10.0 mg/kg/injection, schedule: Q04DX003 (ip), vehicle: saline with Tween-80) 170 % of control; (dose: 20.0 mg/kg/injection, schedule: Q04DX003 (ip), vehicle: saline) 164 % of control; (dose: 26.4 mg/kg/injection, schedule: Q04DX003 (ip), vehicle: saline with Tween-80) 183 % of control. For the same compound, the T/C (dose: 40.0 mg/kg/injection, schedule: Q04DX003 (ip), vehicle: saline) was 204 % of control.

Regarding `C1CC[N+](=c2nc(N3CCOCC3)ss2)C1`, the T/C (dose: 50.0 mg/kg/injection, schedule: Q04DX002 (ip), vehicle: saline with Tween-80) is 100 % of control; the T/C (dose: 100.0 mg/kg/injection, schedule: Q04DX002 (ip), vehicle: saline with Tween-80) was 99 % of control; the T/C (dose: 200.0 mg/kg/injection, schedule: Q04DX002 (ip), vehicle: saline with Tween-80) was 99 % of control.

Take `Cc1c(O)c2c(c(O)c1Cc1ccc(C#N)cc1)C(=O)c1ccccc1C2=O`: the T/C under setting [8] is 94 % of control; the T/C under setting [9] is 91 % of control; the T/C under setting [6] was 90 % of control; the T/C under setting [1] was 91 % of control; the T/C under setting [7] is 89 % of control.

`CN(C)c1ccc(/C=C/c2ccnc3ccc4ccccc4c23)cc1`: the T/C is 98 % of control under setting [1], 100 % of control under setting [2] and 110 % of control under setting [4].

In the case of `CCCCCc1onc(-c2noc(CCCCC)c2C)c1C`, the T/C is 100 % of control (dose: 60.0 mg/kg/injection, schedule: Q01DX005 (ip), vehicle: saline); 99 % of control (dose: 120.0 mg/kg/injection, schedule: Q01DX005 (ip), vehicle: saline); 104 % of control (dose: 240.0 mg/kg/injection, schedule: Q01DX005 (ip), vehicle: saline).

As for `Cc1c(C)c2ccc3occc(=O)c3c2oc1=O`, the T/C by setting is: (dose: 50.0 mg/kg/injection, schedule: Q01DX005 (ip), vehicle: saline with Tween-80) 102 % of control; (dose: 100.0 mg/kg/injection, schedule: Q01DX005 (ip), vehicle: saline with Tween-80) 101 % of control; (dose: 200.0 mg/kg/injection, schedule: Q01DX005 (ip), vehicle: saline with Tween-80) 100 % of control.

On to `O=C1OC(c2ccc(Cl)cc2)Sc2ccccc21` (centres undefined), for which the T/C (dose: 25.0 mg/kg/injection, schedule: Q04DX003 (ip), vehicle: saline with Tween-80) is 102 % of control; the T/C (dose: 50.0 mg/kg/injection, schedule: Q04DX003 (ip), vehicle: saline with Tween-80) is 93 % of control; the T/C under setting [3] is 102 % of control; the T/C under setting [5] is 100 % of control.

`ClC(Cl)CN(Cc1ccccc1)c1ncc[nH]1`: the T/C (dose: 6.25 mg/kg/injection, schedule: Q01DX001 (ip), vehicle: saline) was 105 % of control; the T/C (dose: 12.5 mg/kg/injection, schedule: Q01DX001 (ip), vehicle: saline) is 104 % of control; the T/C (dose: 25.0 mg/kg/injection, schedule: Q01DX001 (ip), vehicle: saline) was 105 % of control.

As for `COc1cc2c(cc1OC)C(C#N)C2` (centres undefined), the T/C is 100 % of control (dose: 0.78 mg/kg/injection, schedule: Q01DX009 (ip), vehicle: saline with Tween-80); 97 % of control (dose: 1.56 mg/kg/injection, schedule: Q01DX009 (ip), vehicle: saline with Tween-80); 102 % of control (dose: 3.12 mg/kg/injection, schedule: Q01DX009 (ip), vehicle: saline with Tween-80); 102 % of control under setting [8].

In the case of `C=CCOc1ccncc1`, the T/C under setting [9] is 100 % of control, the T/C under setting [6] is 95 % of control and the T/C under setting [1] is 90 % of control.
